In US8835466B2, “Synthesis and uses of pyroglutamic acid derivatives” (Prodimed, S.A., priority 2006, dated 2014):
“And” between values parts separate entries of the source, which are not always exact repeats. Identical values can stand only once. Like-named read-outs stand apart in the source and are kept apart here.

Tests used:
[1] = system: Lewis lung cells (lung cell carcinoma); test: Effect of 9d in combination with Cisplatin on tumour growth, Lewis lung (Example 13); type: in vivo, C57BL/6J mice; conditions: for Inhibition of the in vivo growth of Lewis lung tumour in inbred mice, in words / SURFACE Overall values (Mean) / SURFACE Overall values (Median) / VOLUME Overall values (Mean) / VOLUME Overall values (Median): 9d 250 ng; for Inhibition of the in vivo growth of Lewis lung tumour in inbred mice, in words: Cisplatin 65 μg i.p.; for SURFACE Overall values (Mean) / SURFACE Overall values (Median) / VOLUME Overall values (Mean) / VOLUME Overall values (Median): Cisplatin 65 μg, or both; for Differences in Lewis Lung tumour growth rate vs. placebo, statistical significance p (Mann-Whitney U test): either in surface or volume
Text: This assay was made in order to check the effect on in vivo tumour growth in mice challenged with Lewis lung cells. Their effect will be compared with the combination of chemotherapeutic agents plus 9d and/or placebo. Lewis Lung is a lung cell carcinoma originated in C57BL/6J mice strain, and therefore syngeneic in mice with C57BL/6J genetic background (Rodrigo Garzón M, Tirapu Fernández de la Cuesta […], Noel […] and […]. Use of Gene Therapy in a Subcutaneous Murine Model of Lung Cancer. Arch Bronconeumology. 42: 526-532; 2006). Lewis lung cells (CLS, Eppelheim, Germany) were maintained in vitro by serial passages every 3-4 days. […] Louis, Mo., USA) by seeding 5×10^6 cells onto 75 cm^2 culture flasks. Subcultures were carried out by collecting detached cells after treatment with trypsin-EDTA (Sigma, St. Louis, Mo., USA). Tumour cells, collected from 48 hour cultures, were used as source of Lewis Lung cells for the studies described below. […] Tumours were established by subcutaneous inoculation in the right hind flank. Mice were inoculated with 0.2 mL containing 2×10^5 viable cells. The day of subcutaneous inoculation will be considered Day 0 of the test. Mice were observed daily and the tumour size recorded twice a week. This was carried out by measuring two perpendicular diameters (d1/d2) with a calliper. These measures were used to obtain both tumour surface and volume: […] Results were expressed as single values and/or as the mean±SD or median from each experimental group. A case-control study was performed with treated and control mice in order to determine whether differences between placebo, 9d, Cisplatin or 9d+Cisplatin were present. The data obtained (tumour surface and volume) were tested for Normal distribution within the groups (Kolmogorov Smirnov test p<0.05). […] The U-test of Mann Withney was chosen for being one of the better known non-parametrical tests, anyway, results for this test are equivalent both to those of Wilcoxon's sum of ranges and Kruskal-Wallis two-groups test. We excluded of the study animals that have undetectable or unscored tumour on 31th day after tumour inoculation. Due to the high dispersion of data, outlayers were excluded of the study.

healthy mice = type: in vivo; conditions: for WEIGHT LOSS: weight, MEAN / WEIGHT LOSS: weight, MEDIAN: n 5
Protocol: This assay was made in order to perform a preliminary study to address the toxic effect of Isomer 4 (9d) used at a high dose on healthy mice. Its eventual toxicity will be compared with placebo.
Isomer 4 (9d) at 0.7 mg/mL in sterile physiological saline.
The vehicle in which Isomer 4 was diluted was sterile physiological saline for injection (Grifols, Barcelona, Spain) and sterile distilled water for injection (Grifols, Barcelona, Spain)
The treatments were given i.p. or s.c.
Every mouse was observed daily during 10 days.
Three measures were performed:
3. Weight. This was measured and expressed in grammes.
4. Lethality. This was expressed as percentage of survival.
5. Toxicity. This was checked on alive mice for the following parameters and score criteria:
A case-control study was performed with treated and control mice in order to determine whether differences between Isomer 4 and administration of placebo were present. The U-test of Mann Withney was chosen for being one of the better known non-parametrical tests, anyway, results for this test are equivalent both to those of Wilcoxon's sum of ranges and Kruskal-Wallis two-groups test.

KLN 205 (lung carcinoma) = test: Effect of isomer 4 (9d) on tumour growth, KLN 205 (Example 10); type: in vivo; conditions: KLN 205 (high dose lung carcinoma); DBA/2NCrI mice; 260 ng/mice i.p. days 6, 7 and 14
Protocol: (§1) The following assays were made in order to check the effect of isomer 4 (9d) on different tumours following methods and materials analogous to those used in examples 8 and 9, In all cases sterile physiologic saline (Grifols, Barcelona, Spain) was used as placebo. Isomer 4 (9d) was tested at the dose levels indicated in Table 13 on days 6, 7 and 14 after tumour inoculation. In all cases the vehicle was physiologic saline and the treatments were given by intraperitoneal route. The volume inoculated was 0.2 mL/animal.

Lewis (lung carcinoma) = test: Effect of isomer 4 (9d) on tumour growth, Lewis (Example 10); type: in vivo; conditions: Lewis (low dose lung carcinoma); C57BL/6NCrI mice; 260 ng/mice i.p. days 6, 7 and 14
Protocol: as §1

[2] = day 10 after tumour inoculation
[3] = day 13 after tumour inoculation
[4] = day 17 after tumour inoculation
[5] = day 20 after tumour inoculation
[6] = day 24 after tumour inoculation
[7] = day 27 after tumour inoculation
[8] = day 31 after tumour inoculation
[9] = Group A1, 1.25 mg i.p., C57BL/6NCrI, day 0 after the beginning of the treatment
[10] = Group A1, 1.25 mg i.p., C57BL/6NCrI, day 1 after the beginning of the treatment
[11] = Group A1, 1.25 mg i.p., C57BL/6NCrI, day 2 after the beginning of the treatment
[12] = Group A1, 1.25 mg i.p., C57BL/6NCrI, day 3 after the beginning of the treatment
[13] = Group A1, 1.25 mg i.p., C57BL/6NCrI, day 4 after the beginning of the treatment
[14] = Group A1, 1.25 mg i.p., C57BL/6NCrI, day 5 after the beginning of the treatment
[15] = Group A1, 1.25 mg i.p., C57BL/6NCrI, day 6 after the beginning of the treatment
[16] = Group A1, 1.25 mg i.p., C57BL/6NCrI, day 7 after the beginning of the treatment
[17] = Group A1, 1.25 mg i.p., C57BL/6NCrI, day 8 after the beginning of the treatment
[18] = Group A1, 1.25 mg i.p., C57BL/6NCrI, day 9 after the beginning of the treatment
[19] = Group A1, 1.25 mg i.p., C57BL/6NCrI, day 10 after the beginning of the treatment

N.N.[Cl][Pt][Cl] [Cisplatin, reference compound]
Inhibition of the in vivo growth of Lewis lung tumour in inbred mice, in words [1]: inhibit the in vivo growth | SURFACE Overall values (Mean) ([1]; day 0 after tumour inoculation): 0 mm^2 | SURFACE Overall values (Median) ([1]; day 0 after tumour inoculation): 0 mm^2 | VOLUME Overall values (Mean) ([1]; day 0 after tumour inoculation): 0 mm^3 | VOLUME Overall values (Median) ([1]; day 0 after tumour inoculation): 0 mm^3 | SURFACE Overall values (Mean) [1, 2]: 2.4 mm^2 | SURFACE Overall values (Median) [1, 2]: 0 mm^2 | VOLUME Overall values (Mean) [1, 2]: 3.27 mm^3 | VOLUME Overall values (Median) [1, 2]: 0 mm^3 | SURFACE Overall values (Mean) [1, 3]: 6.73 mm^2 | SURFACE Overall values (Median) [1, 3]: 4 mm^2 | VOLUME Overall values (Mean) [1, 3]: 11.23 mm^3 | VOLUME Overall values (Median) [1, 3]: 4 mm^3 | SURFACE Overall values (Mean) [1, 4]: 20.73 mm^2 | SURFACE Overall values (Median) [1, 4]: 25 mm^2 | VOLUME Overall values (Mean) [1, 4]: 49.97 mm^3 | VOLUME Overall values (Median) [1, 4]: 56 mm^3 | SURFACE Overall values (Mean) [1, 5]: 58.33 mm^2 | SURFACE Overall values (Median) [1, 5]: 49 mm^2 | VOLUME Overall values (Mean) [1, 5]: 269.1 mm^3 | VOLUME Overall values (Median) [1, 5]: 171.5 mm^3 | SURFACE Overall values (Mean) [1, 6]: 106.07 mm^2 | SURFACE Overall values (Median) [1, 6]: 90 mm^2 | VOLUME Overall values (Mean) [1, 6]: 619.43 mm^3 | VOLUME Overall values (Median) [1, 6]: 405 mm^3 | SURFACE Overall values (Mean) [1, 7]: 160.07 mm^2 | SURFACE Overall values (Median) [1, 7]: 120 mm^2 | VOLUME Overall values (Mean) [1, 7]: 1076.9 mm^3 | VOLUME Overall values (Median) [1, 7]: 600 mm^3 | SURFACE Overall values (Mean) [1, 8]: 204.93 mm^2 | SURFACE Overall values (Median) [1, 8]: 169 mm^2 | VOLUME Overall values (Mean) [1, 8]: 1530.4 mm^3 | VOLUME Overall values (Median) [1, 8]: 1080 mm^3 | Differences in Lewis Lung tumour growth rate vs. placebo, statistical significance p (Mann-Whitney U test) ([1]; days 10th, 13th and 17 th): < 0.05

Br.N[C@]1(C[n+]2ccccc2)C[C@H](C(=O)O)NC1=O.[Br-] (single isomer, unassigned; isomer 4) [isomer 4, 3S,5R-1-(3-Amino-5-carboxy-2-oxopyrrolidin-3-ylmethyl)pyridinium bromide hidrobromide]
Differences on weight between groups (Isomer 4 vs placebo), p (Mann-Whitney U test) (healthy mice; C57BL/6 mice, every day scored over 10 days): > 0.05 | WEIGHT LOSS: weight of each mouse (healthy mice; Group A1, 1.25 mg i.p., C57BL/6NCrI, individual animals 1-5, day 8 after the beginning of the treatment): 26 g (3×) and 20 g and 28 g | WEIGHT LOSS: weight, MEAN (healthy mice; [9]): 26.4 g | WEIGHT LOSS: weight, MEDIAN (healthy mice; [9]): 27 g | WEIGHT LOSS: weight, MEAN (healthy mice; [10]): 25.4 g | WEIGHT LOSS: weight, MEDIAN (healthy mice; [10]): 26 g | WEIGHT LOSS: weight, MEAN (healthy mice; [11]): 25.4 g | WEIGHT LOSS: weight, MEDIAN (healthy mice; [11]): 26 g | WEIGHT LOSS: weight, MEAN (healthy mice; [12]): 26 g | WEIGHT LOSS: weight, MEDIAN (healthy mice; [12]): 26 g | WEIGHT LOSS: weight, MEAN (healthy mice; [13]): 25.8 g | WEIGHT LOSS: weight, MEDIAN (healthy mice; [13]): 26 g | WEIGHT LOSS: weight, MEAN (healthy mice; [14]): 24.8 g | WEIGHT LOSS: weight, MEDIAN (healthy mice; [14]): 26 g | WEIGHT LOSS: weight, MEAN (healthy mice; [15]): 25 g | WEIGHT LOSS: weight, MEDIAN (healthy mice; [15]): 26 g | WEIGHT LOSS: weight, MEAN (healthy mice; [16]): 25 g | WEIGHT LOSS: weight, MEDIAN (healthy mice; [16]): 26 g | WEIGHT LOSS: weight, MEAN (healthy mice; [17]): 25.2 g | WEIGHT LOSS: weight, MEDIAN (healthy mice; [17]): 26 g | WEIGHT LOSS: weight, MEAN (healthy mice; [18]): 25 g | WEIGHT LOSS: weight, MEDIAN (healthy mice; [18]): 26 g | WEIGHT LOSS: weight, MEAN (healthy mice; [19]): 24.8 g | WEIGHT LOSS: weight, MEDIAN (healthy mice; [19]): 26 g | Deaths or toxicity (systemic), in words (healthy mice; Group A1, dose exceeded 50,000-fold the total amount of the therapeutic dose): No deaths or toxicity were observed | Local toxicity, in words (healthy mice; Group C1, dose exceeded 500-fold the normal concentration of the therapeutic dose): Local toxicity was neither observed | Tolerance by mice, in words (healthy mice; doses that greatly exceed its therapeutic range): well tolerated | Tumour growth inhibition? (KLN 205 (lung carcinoma)): YES | Tumour growth inhibition? (Lewis (lung carcinoma)): YES | Inhibition of the in vivo growth of Lewis lung tumour in inbred mice, in words [1]: inhibit the in vivo growth | SURFACE Overall values (Mean) ([1]; day 0 after tumour inoculation): 0 mm^2 | SURFACE Overall values (Median) ([1]; day 0 after tumour inoculation): 0 mm^2 | VOLUME Overall values (Mean) ([1]; day 0 after tumour inoculation): 0 mm^3 | VOLUME Overall values (Median) ([1]; day 0 after tumour inoculation): 0 mm^3 | SURFACE Overall values (Mean) [1, 2]: 2 mm^2 | SURFACE Overall values (Median) [1, 2]: 0 mm^2 | VOLUME Overall values (Mean) [1, 2]: 2.27 mm^3 | VOLUME Overall values (Median) [1, 2]: 0 mm^3 | SURFACE Overall values (Mean) [1, 3]: 6.47 mm^2 | SURFACE Overall values (Median) [1, 3]: 4 mm^2 | VOLUME Overall values (Mean) [1, 3]: 12.5 mm^3 | VOLUME Overall values (Median) [1, 3]: 4 mm^3 | SURFACE Overall values (Mean) [1, 4]: 20.13 mm^2 | SURFACE Overall values (Median) [1, 4]: 24 mm^2 | VOLUME Overall values (Mean) [1, 4]: 52.73 mm^3 | VOLUME Overall values (Median) [1, 4]: 48 mm^3 | SURFACE Overall values (Mean) [1, 5]: 34.33 mm^2 | SURFACE Overall values (Median) [1, 5]: 36 mm^2 | VOLUME Overall values (Mean) [1, 5]: 112.3 mm^3 | VOLUME Overall values (Median) [1, 5]: 108 mm^3 | SURFACE Overall values (Mean) [1, 6]: 60.6 mm^2 | SURFACE Overall values (Median) [1, 6]: 80 mm^2 | VOLUME Overall values (Mean) [1, 6]: 253.77 mm^3 | VOLUME Overall values (Median) [1, 6]: 320 mm^3 | SURFACE Overall values (Mean) [1, 7]: 104.8 mm^2 | SURFACE Overall values (Median) [1, 7]: 88 mm^2 | VOLUME Overall values (Mean) [1, 7]: 557.13 mm^3 | VOLUME Overall values (Median) [1, 7]: 364.5 mm^3 | SURFACE Overall values (Mean) [1, 8]: 141.8 mm^2 | SURFACE Overall values (Median) [1, 8]: 130 mm^2 | VOLUME Overall values (Mean) [1, 8]: 887.17 mm^3 | VOLUME Overall values (Median) [1, 8]: 665.5 mm^3 | Differences in Lewis Lung tumour growth rate vs. placebo, statistical significance p (Mann-Whitney U test) ([1]; all days scored after the day 13th): < 0.05
